# Results published in patent US20210393642A1, “COMPOSITION FOR PREVENTING OR TREATING SJOGREN'S SYNDROME” (SAMJIN PHARMACEUTICAL CO., LTD., priority 2018, published 2021).
# Columns and labels:
# IL-6 = assay: Quantitative RT-PCR of mRNA in lacrimal and salivary gland tissues, IL-6; format: in vivo, mice; details: N=6
# FLT3L = assay: Quantitative RT-PCR of mRNA in lacrimal and salivary gland tissues, FLT3L; format: in vivo, mice; details: N=6
# IL-17A [1] = assay: Quantitative RT-PCR of mRNA in lacrimal and salivary gland tissues, IL-17A; format: in vivo, mice; details: N=6
# interferon-g = assay: Quantitative RT-PCR of mRNA in lacrimal and salivary gland tissues, interferon-g; format: in vivo, mice; details: N=6
# IL-21 = assay: Quantitative RT-PCR of mRNA in lacrimal and salivary gland tissues, IL-21; format: in vivo, mice; details: N=6
# TNF-α = assay: Quantitative RT-PCR of mRNA in lacrimal and salivary gland tissues, TNF-α; format: in vivo, mice; details: N=6
# IL-13 = assay: Quantitative RT-PCR of mRNA in lacrimal and salivary gland tissues, IL-13; format: in vivo, mice; details: N=6
# IL-17A [2] = assay: Quantification (ELISA) of cytokine IL-17A in plasma; format: in vivo, mice; details: versus control, N=3, FIG. 5
# Description: (§1) As markers of Sjogren's syndrome, anti-SSA/Ro (Signosis, #EA-5202, US) and anti-SSB/La (Signosis, #EA-5204, US), which are autoantibodies based on RNP particles, and interleukin-17A cytokine (Signosis, #EA-2516, US) which is involved in the onset of autoimmune diseases, were quantified by Enzyme-linked ImmunoSorbent Assay (ELISA) in order to determine the secretion and production of these markers in serum.
# IL-12 = assay: Quantitative RT-PCR of mRNA in lacrimal and salivary gland tissues, IL-12; format: in vivo, mice; details: N=6
# IL-2 = assay: Quantitative RT-PCR of mRNA in lacrimal and salivary gland tissues, IL-2; format: in vivo, mice; details: N=6, FIGS. 4a, 4b
# [3] = system: disease model of Sjogren's syndrome (Nfkbiz^−/− or IkB-ξ-deficient mice, C57BL/6); assay: Tear production measurement (Schirmer test, phenol red thread); format: in vivo; details: oral, 80 mg/kg b.i.d, 5 weeks; versus control (Ctrl) group; N=11; FIG. 1
# Protocol: Hereinafter, experiments for evaluating the anti-inflammatory effect and tissue regeneration effect of oral administration of the composition according to one embodiment of the present invention by using a disease model of Sjogren's syndrome (Nfkbiz^−/− or IkB-ξ-deficient mice, C57BL/6) will be described in detail.
# Tear production was measured using a phenol red thread (Zone-Quick; Oasis, Glendora, Calif.) 1 minute after animal anesthesia. One end of the phenol red thread was placed against the lower eyelid of the lateral canthus of the animal eye and left to stand for 60 seconds. After the thread was soaked with tear by the capillary phenomenon, the length (mm) of the thread whose color changed was measured. When the amount of tear secretion decreases, dry eye caused by Sjogren syndrome symptoms is promoted. Thus, it was determined that the greater the amount of tear secretion, the greater the effect of the test substance.
# IL-17A [4] = assay: Protein expression in lacrimal and salivary gland tissues (immunoblotting), IL-17A; format: in vivo, mice; details: dose of 100 mg/kg as printed; compared to control group; FIG. 3
# Protocol: (§2) The lacrimal gland and salivary gland tissues of the test animals were isolated, placed in PBS, and homogenized on ice. 1 ml of RIPA lysis buffer (50 mM Tris-Cl pH7.4, 150 mM NaCl, 1 mM EDTA, 1% Triton X-100, 0.1% SDS, 1% sodium deoxycholate, 0.5 mM phenylmethylsulfonyl fluoride, 2 μg/ml leupeptin, 2 μg/ml aprotinin, 10 mM NaF, and 1 mM sodium orthovanadate) was added to each homogenized tissue which was then kept on ice for 5 minutes. Each tissue solution was then centrifuged (at 13000 rpm for 20 mins), and only the supernatant was collected, and then protein correction was performed. Samples were incubated with anti-Akt (1:400) and anti-interleukin 17A (1:200) antibodies and subjected to immunoprecipitation (IP) (overnight), followed by sampling. Each of the samples was subjected to SDS-PAGE and transferred to polyvinylidene fluoride (PVDF) membranes. Then, the Akt-IP-samples were incubated with phospho-Akt (S473) (diluted at 1:100,000 in blocking buffer (TBS+Tween20)+0.1% skim milk) at 4° C. overnight, and the IL-17A-IP-samples were incubated with IL-17A primary antibody (diluted at 1:100,000 in blocking buffer (TBS+Tween20)+0.1% skim milk) at 4° C. overnight. Next, the samples were incubated with HRP-conjugated secondary antibody, and then protein bands were visualized with ECL solution in the dark and quantified by exposure to X-ray films.
# [5] = system: disease model of Sjogren's syndrome (Nfkbiz^−/− or IkB-ξ-deficient mice, C57BL/6); assay: Analysis of inflammatory phenotypes in animals (disease scores); format: in vivo; details: compared to control group, from 2 weeks after administration; N=11; FIG. 7
# Description: The degree of inflammation in the animal model was scored according to the following criteria and analyzed.
# 2: eyes with discharge that were difficult to open
# 3: periocular skin erosion
# 4: inflammation reaching perioral skin
# 5: erosion and loss of hair in whole face.
# CXCL13 = assay: Quantitative RT-PCR of mRNA in lacrimal and salivary gland tissues, CXCL13; format: in vivo, mice; details: N=6
# CXCR5 = assay: Quantitative RT-PCR of mRNA in lacrimal and salivary gland tissues, CXCR5; format: in vivo, mice; details: N=6
# anti-SSB/La = assay: Quantification (ELISA) of autoantibody anti-SSB/La in plasma; format: in vivo, mice
# Description: as §1
# IFN-α = assay: Quantitative RT-PCR of mRNA in lacrimal and salivary gland tissues, IFN-α; format: in vivo, mice; details: N=6
# BAFF = assay: Quantitative RT-PCR of mRNA in lacrimal and salivary gland tissues, BAFF; format: in vivo, mice; details: N=6
# IL-22 = assay: Quantitative RT-PCR of mRNA in lacrimal and salivary gland tissues, IL-22; format: in vivo, mice; details: N=6
# IL-18 = assay: Quantitative RT-PCR of mRNA in lacrimal and salivary gland tissues, IL-18; format: in vivo, mice; details: N=6
# anti-SSA/Ro = assay: Quantification (ELISA) of autoantibody anti-SSA/Ro in plasma; format: in vivo, mice
# Description: as §1
# p-AKT = assay: Protein expression in lacrimal and salivary gland tissues (immunoblotting), p-AKT; format: in vivo, mice; details: versus control, N=3, FIG. 3
# Protocol: as §2
# [6] = IkB-ξ-deficient male mice, 80 mg/kg, n = 3, vehicle = 100.0
compound,measurement,setting,value
"O=C(NC(Cc1cc(=O)[nH]c2ccccc12)C(=O)OCCN1CCOCC1)c1ccc(Cl)cc1.O=C(O)CC(=O)O (stereo not drawn) [SA001, 2-(morpholin-4-yl)ethyl 2-(4-chlorobenzoylamino)-3-(2-oxo-1,2-dihydroquinolin-4-yl)propionate malonate]","IL-6 mRNA, decrease compared with control",IL-6; lacrimal glands,2 fold
same,"IL-6 mRNA, decrease compared with control",IL-6; salivary glands,2.5 fold
same,"FLT3L mRNA, decrease compared with control",FLT3L; lacrimal glands,2.5 fold
same,"FLT3L mRNA, decrease compared with control",FLT3L; salivary glands,13 fold
same,"IL-17A mRNA, decrease compared with control",IL-17A [1]; lacrimal glands,2.8 fold
same,"IL-17A mRNA, decrease compared with control",IL-17A [1]; salivary glands,3.3 fold
same,"interferon-g mRNA, decrease compared with control",interferon-g; lacrimal glands,1.3 fold
same,"interferon-g mRNA, decrease compared with control",interferon-g; salivary glands,1.3 fold
same,"IL-21 mRNA, decrease compared with control",IL-21; lacrimal glands,1.6 fold
same,"IL-21 mRNA, decrease compared with control",IL-21; salivary glands,20 fold
same,"TNF-α mRNA, decrease compared with control",TNF-α; lacrimal glands,1.6 fold
same,"TNF-α mRNA, decrease compared with control",TNF-α; salivary glands,2.2 fold
same,"IL-13 mRNA, decrease compared with control",IL-13; lacrimal glands,2 fold
same,"IL-13 mRNA, decrease compared with control",IL-13; salivary glands,10 fold
same,IL-17A in plasma,IL-17A [2],decreased
same,"IL-12 mRNA, decrease compared with control",IL-12; lacrimal glands,10 fold
same,"IL-12 mRNA, decrease compared with control",IL-12; salivary glands,not significant
same,"IL-2 mRNA, decrease compared with control",IL-2; lacrimal glands,4.5 fold
same,"IL-2 mRNA, decrease compared with control",IL-2; salivary glands,1.3 fold
same,tear production,[3],significantly increased
same,protein expression of IL-17A in the lacrimal gland and salivary gland tissues,IL-17A [4],significantly decreased
same,"onset of the disease (disease score, inflammatory phenotype on five-point scale)",[5],significantly slowed
same,"CXCL13 mRNA, decrease compared with control",CXCL13; lacrimal glands,2.5 fold
same,"CXCL13 mRNA, decrease compared with control",CXCL13; salivary glands,5 fold
same,"CXCR5 mRNA, decrease compared with control",CXCR5; lacrimal glands,not significant
same,"CXCR5 mRNA, decrease compared with control",CXCR5; salivary glands,2.5 fold
same,"SSB/La, No. (%)",anti-SSB/La; [6],67.9 ± 12.4%
same,"anti-SSB in plasma, decrease compared to control group","anti-SSB/La; N=3, FIG. 5",30%
same,"IFN-α mRNA, decrease compared with control",IFN-α; lacrimal glands,1.6 fold
same,"IFN-α mRNA, decrease compared with control",IFN-α; salivary glands,40 fold
same,"BAFF mRNA, decrease compared with control",BAFF; lacrimal glands,1.6 fold
same,"BAFF mRNA, decrease compared with control",BAFF; salivary glands,not significant
same,"IL-22 mRNA, decrease compared with control",IL-22; lacrimal glands,1.7 fold
same,"IL-22 mRNA, decrease compared with control",IL-22; salivary glands,1.6 fold
same,"IL-18 mRNA, decrease compared with control",IL-18; lacrimal glands,not significant
same,"IL-18 mRNA, decrease compared with control",IL-18; salivary glands,1.6 fold
same,"SSA/Ro, No. (%)",anti-SSA/Ro; [6],61.0 ± 8.7%
same,"anti-SSA in plasma, decrease compared to control group","anti-SSA/Ro; N=3, FIG. 5",40%
same,expression of p-AKT (activated form of Akt),p-AKT,significantly increased
